Assay results as given in patent publication US8674064B2, “Immunogenic compositions against human progastrin peptides” (Onkologix Ltd, priority 2010, dated 2014).
Ends that are not written are not given here.

Tests used:
[1] = tested on: huG17; assay: ELISA antibody responses in mice after immunization with peptide-carrier conjugates; assay type: in vivo; details: three immunizations, FIG. 1
Protocol: FIG. 1 depicts antibody responses in mice as measured by ELISA and are in response to three immunizations with immunogens comprising each of the conjugates hG18-TT, hG18-DT, hG21-TT and hG21-DT (A, B, C and D, respectively).
(§1) The conjugate may be characterized as to immunomimic peptide content by a number of methods known to those skilled in the art including weight gain, amino acid analysis, etc. Conjugates of peptides G18 and G21 to TT produced by these methods were determined by amino acid analysis to have 10-30 moles of peptide per 104-106 MW of TT and all were considered suitable as immunogens for immunization of test animals. Similarly DT conjugates of G18 and G21, were prepared in the same manner to determine ELISA titers using huG17 as the substrate for assay of antibody binding.
The inventors constructed conjugates comprising each of the G18 and G21 peptides listed in Example 1 linked to TT and DT, as described in Examples 1 and 2. They then immunized six mice with the peptide G18 immunogen (FIGS. 1A, B) and six mice with the peptide G21 immunogen (FIGS. 1C, D).

[2] = tested on: huG17; assay: ELISA antibody responses in rabbits after immunization with peptide-carrier conjugates; assay type: in vivo; details: one administration, FIG. 2
Protocol: FIG. 2 depicts antibody responses in rabbits, as measured by ELISA, with one administration of a conjugate constructed with peptide 1 (hG18-TT) and peptide 2 (hG21-TT) of Examples 1 and Example 2 below, per A and B, respectively.
as §1
The inventors constructed conjugates comprising each of the G18 and G21 peptides, supra, linked to TT and DT as described in Examples 1 and 2. They then immunized four rabbits with the G18 immunogen (FIG. 2A) and four rabbits with the G21 immunogen (FIG. 2B).

[3] = tested on: human gastric cancer cells (BCG-823); details: in vivo

Cys-pro-Pro-Pro-Pro-Ser-Ser-Gly-Trp-Met-Asp-nPhe-Gly-Arg-Arg-Ser-Ala-Glu-Asp-Glu-Asn (CPPPPSSGWMDFGRRSAEDEN; not fully specified (residues 2, 12); printed as Cys-pro-Pro-Pro-Pro-Ser-Ser-Gly-Trp-Met-Asp-nPhe-Gly-Arg-Arg-Ser-Ala-Glu-Asp-Glu-Asn) [Peptide 1]
effective: potency, eliciting of antibody and duration of the antibody responses induced (ELISA) [1] | potency, eliciting of antibody and duration of the antibody responses induced (ELISA) [2] | antibody responses effective in the presence of conventional gastric cancer chemotherapies [3] | inhibiting the growth of human gastric cancer cells [3]

pGlu-Gly-Pro-Trp-isoVal-Glu-Glu-Glu-Glu-Glu-Ala-Ser-Ser-Pro-Pro-Pro-pro-Cys (EGPWVEEEEEASSPPPPC; not fully specified (residues 1, 5, 17); printed as pGlu-Gly-Pro-Trp-isoVal-Glu-Glu-Glu-Glu-Glu-Ala-Ser-Ser-Pro-Pro-Pro-pro-Cys) [Peptide 2]
effective: potency, eliciting of antibody and duration of the antibody responses induced (ELISA) [1] | potency, eliciting of antibody and duration of the antibody responses induced (ELISA) [2] | antibody responses effective in the presence of conventional gastric cancer chemotherapies [3] | inhibiting the growth of human gastric cancer cells [3]
